# “Also recorded” adds a separate entry of the source. Where two headings read alike, the source gives them in different places.
# Tests used:
# [1] = Subplantar edema caused by carrageenan (antiinflammatory activity); assay type: in vivo; set-up: Volume of Paw in No. of Hours after the Treatment: 0 / Volume of Paw in No. of Hours after the Treatment: 1 / Volume of Paw in No. of Hours after the Treatment: 2 / Volume of Paw in No. of Hours after the Treatment: 3 / Volume of Paw in No. of Hours after the Treatment: 4 / Volume of Paw in No. of Hours after the Treatment: 5: dose or concentration left out as unconfirmed; conditions: rats, oral; for AREA % Inhibition vs. Control / AREA Absolute Value: paw volume 0-5 h, acetylsalicylic acid 250, ibuprofen 100, paracetamol 100, diflunisal 25, MR 713 25 mg/kg
# Excerpt: The experiments have been carried out with rats and carrageenan has been used as the agent causing edema.
# Subplantar Edema Caused by Carrageenan in Rats
# [2] = Contorsions caused by phenylquinone (analgesic activity); assay type: in vivo; conditions: mice, oral; phenylquinone 30 min after; acetylsalicylic acid 250, ibuprofen 100, paracetamol 100, diflunisal 25, MR 713 25 mg/kg
# Excerpt: The analgesic activity has been tested in mice using the contorsion test caused by phenylquinone. […] Phenylquinone has been administered thirty minutes after the substance under test and the results obtained are reported in Table II.
# Contorsions Caused by Phenylquinone in Mice
# [3] = Acute toxicity, oral; assay type: in vivo; conditions: mice
# [4] = Plasmatic levels half-life, oral; assay type: in vivo; conditions: rats, at equal dose
# Method: The pharmacodynamic tests carried out in rats and administering MR 713 by the oral route in the doses of 25, 50, and 100 mg/kg, show a half-life time of plasmatic levels, which is possible to calculate in the dose of 25 mg/kg, of about eleven hours. […] The pharmacodynamic tests permit to administer one or at the most two daily doses of MR 713.
# [5] = Solubility; assay type: physicochemical
# [6] = rats fasted 18 h, oral, 6 h, MR 713 25 mg/kg
Compound,AREA % Inhibition vs. Control [1],AREA Absolute Value [1],% Inhibition vs. Controls (contorsions) [2],Average No. of Contorsions [2],No. of Animals with Contorsions [2],"Average Size of Ulcer in mm (rat, in vivo, po, 25 mg/kg)",gastric lesions / gastric tolerability [6],also measured
"CC(=O)Oc1ccccc1C(=O)O [acetylsalicylic acid, acetyl salicylic acid]",33.0%,182.4,100%,0,0/10,3.7 ± 0.8 mm,cause gastric lesions,–
"O=C(O)c1cc(-c2ccc(F)cc2F)ccc1O [Diflunisal, diflunisal]",30.0%,190.7,99.1%,0.2 ± 0.2,1/9,0.7 ± 0.4 mm,–,Volume of Paw in No. of Hours after the Treatment: 0 ([1]; 0 h): 21.2; Volume of Paw in No. of Hours after the Treatment: 1 ([1]; 1 h): 25.6; Volume of Paw in No. of Hours after the Treatment: 2 ([1]; 2 h): 29.7; Volume of Paw in No. of Hours after the Treatment: 3 ([1]; 3 h): 31.0; Volume of Paw in No. of Hours after the Treatment: 4 ([1]; 4 h): 33.4; Volume of Paw in No. of Hours after the Treatment: 5 ([1]; 5 h): 33.1
"CC(=O)Nc1ccc(O)cc1 [Paracetamol, p-acetylaminophenol]",10.0%,245.7,63.4%,8.6 ± 3.3,5/10,0.6 ± 0.4 mm,–,–
"O=C(O)COc1ccc(-c2ccc(F)cc2F)cc1 [MR 713, (2',4'-difluoro-4-biphenyl)oxyacetic acid]",31.0%,186.4,54.0%,10.8 ± 2.8,9/10,0.3 ± 0.1 mm,–,"antiinflammatory activity compared with reference drugs ([1]; MR 713 25 mg/kg, vs diflunisal same dose, paracetamol and ibuprofen four times larger dose, acetylsalicylic acid ten times larger dose, 25 mg/kg): essentially the same as diflunisal; also recorded: substantially superior to paracetamol even when the latter is used in doses four times larger; also recorded: lower than that of ibuprofen; also recorded: essentially equivalent to the activity of acetylsalicylic acid; acute toxicity [3]: very low acute toxicity; LD50 ([3]; mouse, in vivo, body weight, read-out: DL50 (the source's name)): 790 mg/kg; half-life time of plasmatic levels, compared with other drugs [4]: substantially superior to the action of diflunisal; solubility in chlorinated hydrocarbons ([5]; chlorinated hydrocarbons): insoluble; solubility in hot lower alcohols ([5]; hot lower alcohols): soluble; solubility in water ([5]; water): essentially insoluble; gastric lesions / gastric tolerability (rat, in vivo, po, 25 mg/kg): causes even less gastric lesions as compared with drugs which are well-known to be tolerated at the gastric level, such as paracetamol and diflunisal"
"CC(C)Cc1ccc(C(C)C(=O)O)cc1 (stereo not shown) [Ibuprofen, ibuprofen]",40.0%,163.7,99.1%,0.2 ± 0.1,2/10,2.3 ± 0.7 mm,cause gastric lesions,–
